Experimental data published in the NIST ThermoML archive (doi:10.1021/je034203p).

Test: xn = mol fraction of the nth substance listed
Conditions: 298.15 K, 101.3 kPa, Liquid; for viscosity: Capillary tube (Ostwald / Ubbelohde) method

ClC(Cl)=C(Cl)Cl [tetrachloroethene] + CCCO
Conditions | mass density [kg/m3] | viscosity [mPa·s]
x1 = 0.0749 | 879 | 1.79
x1 = 0.1541 | 958.4 | 1.632
x1 = 0.2379 | 1038.5 | 1.488
x1 = 0.3269 | 1117.4 | 1.35
x1 = 0.4214 | 1197.5 | 1.218
x1 = 0.5229 | 1278.9 | 1.11
x1 = 0.6302 | 1360.9 | 1.011
x1 = 0.745 | 1442.8 | 0.9253
x1 = 0.8679 | 1525.7 | 0.8657
x1 = 1 | 1610.2 | 0.8474

ClC(Cl)=C(Cl)Cl [tetrachloroethene] + CCO
Conditions | mass density [kg/m3] | viscosity [mPa·s]
x1 = 0.0593 | 868.1 | 1.073
x1 = 0.1243 | 949.6 | 1.04
x1 = 0.1957 | 1029.4 | 1.007
x1 = 0.2746 | 1111.3 | 0.9767
x1 = 0.3619 | 1191.8 | 0.9475
x1 = 0.4601 | 1273.7 | 0.9189
x1 = 0.57 | 1356 | 0.8939
x1 = 0.6944 | 1440 | 0.8729
x1 = 0.8364 | 1524.9 | 0.8551
x1 = 1 | 1610.2 | 0.8474

ClC(Cl)=C(Cl)Cl [tetrachloroethene] + CCOC(C)=O
Conditions | mass density [kg/m3] | viscosity [mPa·s]
x1 = 0.0962 | 961.2 | 0.4946
x1 = 0.1932 | 1030.8 | 0.5525
x1 = 0.291 | 1100.6 | 0.6095
x1 = 0.3899 | 1171 | 0.6633
x1 = 0.4894 | 1241.8 | 0.711
x1 = 0.5901 | 1313.6 | 0.7481
x1 = 0.6911 | 1385.7 | 0.7788
x1 = 0.7937 | 1460 | 0.8078
x1 = 0.8964 | 1534.5 | 0.8295
x1 = 1 | 1610.2 | 0.8474

ClC(Cl)=C(Cl)Cl [tetrachloroethene] + CO
Conditions | mass density [kg/m3] | viscosity [mPa·s]
x1 = 0.042 | 868.7 | 0.5644
x1 = 0.0897 | 950.1 | 0.5806
x1 = 0.1446 | 1030.1 | 0.5981
x1 = 0.2082 | 1112 | 0.6209
x1 = 0.2828 | 1192.6 | 0.6449
x1 = 0.372 | 1274.4 | 0.6751
x1 = 0.4795 | 1355.9 | 0.7069
x1 = 0.6123 | 1439.7 | 0.7412
x1 = 0.7804 | 1524.3 | 0.7875
x1 = 1 | 1610.2 | 0.8474

ClC(Cl)=C(Cl)Cl [tetrachloroethene] + COC(C)=O
Conditions | mass density [kg/m3] | viscosity [mPa·s]
x1 = 0.0796 | 989.2 | 0.4237
x1 = 0.1628 | 1054.7 | 0.4749
x1 = 0.25 | 1120.7 | 0.5226
x1 = 0.3415 | 1188.6 | 0.5729
x1 = 0.4373 | 1255.3 | 0.6243
x1 = 0.5388 | 1322.7 | 0.6708
x1 = 0.6452 | 1393.1 | 0.7166
x1 = 0.7573 | 1464.2 | 0.7614
x1 = 0.8749 | 1535.4 | 0.8038
x1 = 1 | 1610.2 | 0.8474

ClC(Cl)=C(Cl)Cl [tetrachloroethene] + Cc1ccccc1
Conditions | mass density [kg/m3] | viscosity [mPa·s]
x1 = 0.1034 | 932 | 0.5799
x1 = 0.2062 | 1004.7 | 0.6014
x1 = 0.3079 | 1078.4 | 0.6234
x1 = 0.4093 | 1151.3 | 0.6477
x1 = 0.5095 | 1225.3 | 0.6743
x1 = 0.6092 | 1300.1 | 0.7053
x1 = 0.7083 | 1376.8 | 0.7377
x1 = 0.806 | 1451.7 | 0.7701
x1 = 0.9038 | 1530.1 | 0.8084
x1 = 1 | 1610.2 | 0.8474

ClC(Cl)=C(Cl)Cl [tetrachloroethene] + ClC(Cl)(Cl)Cl
Conditions | mass density [kg/m3] | viscosity [mPa·s]
x1 = 0.0946 | 1583.5 | 0.8943
x1 = 0.1904 | 1582.4 | 0.8803
x1 = 0.2873 | 1582 | 0.8675
x1 = 0.3853 | 1582.5 | 0.8569
x1 = 0.4845 | 1583.8 | 0.8504
x1 = 0.5859 | 1587.2 | 0.8452
x1 = 0.6876 | 1590.1 | 0.8407
x1 = 0.7904 | 1596.8 | 0.8422
x1 = 0.8946 | 1603.2 | 0.8445
x1 = 1 | 1610.2 | 0.8474
